The results in this text go back to patent US20070128217A1 (priority 2003, published 2007).

Test [1] relates to control sera (pooled serum of ten healthy LUMC hospital workers; commercial negative donor pooled serum from the Dutch bloodbank). Type of test: binding, human. On the set-up: Binding of Control serum LUMC to linear peptides / Binding of Control serum Blood-bank to linear peptides / Binding of Control serum LUMC to looped peptides / Binding of Control Serum Blood-Bank to Looped peptides / Binding of Control serum LUMC to linear peptides of the protein M of SARS-CoV Urbani / Binding of Control serum Blood-bank to linear peptides of the protein M of SARS-CoV Urbani / Binding of Control serum LUMC to looped peptides of the protein M of SARS-CoV Urbani / Binding of Control Serum Blood-Bank to Looped peptides of the protein M of SARS-CoV Urbani: unit not given here.

Test [2] has as its system rabbit serum obtained by immunizing a rabbit with the SARS-CoV strain Frankfurt 1. Type of test: binding. Set-up: Binding of a rabbit serum to linear peptides / Binding of a rabbit serum to looped peptides / Rabbit serum linear peptides / Rabbit serum looped peptides / Binding of a rabbit serum to linear peptides of protein N of SARS-CoV Urbani (Rabbit serum linear peptides) / Binding of a rabbit serum to looped/cyclic peptides of protein N of SARS-CoV Urbani (Rabbit serum looped peptides): unit not given here.

The test system of test [3] is antibodies in sera from SARS patients (sera 1a, 1b, 2, 6, 37, 62, London, SARS-yellow, SARS-green). It counts as binding, human. On the set-up: Binding of serum 6 to linear peptides of protein X1 of SARS-CoV Urbani / Binding of serum 37 to linear peptides of protein X1 of SARS-CoV Urbani / Binding of serum 6 to looped/cyclic peptide (PEPSCAN-ELISA) / Binding of serum 37 to looped/cyclic peptide (PEPSCAN-ELISA) / Binding of serum 37 to looped/cyclic peptides of protein X1 of SARS-CoV Urbani / Binding of serum 6 to linear peptides of protein X2 / Binding of serum 37 to linear peptides of protein X2 / Binding of serum 37 to looped/cyclic peptides of protein X2 of SARS-CoV Urbani / Binding of serum 6 to linear peptides of protein M of SARS-CoV Urbani / Binding of serum 37 to linear peptides of protein M of SARS-CoV Urbani / Binding of serum 6 to looped/cyclic peptides of protein M of SARS-CoV Urbani / Binding of serum 37 to looped/cyclic peptides of protein M of SARS-CoV Urbani / Binding of serum 6 to linear peptides of protein X3 of SARS-CoV Urbani / Binding of serum 37 to linear peptides of protein X3 of SARS-CoV Urbani / Binding of serum 37 to looped/cyclic peptides of protein X3 of SARS-CoV Urbani / Binding of serum 6 to linear peptides of protein X4 of SARS-CoV Urbani / Binding of serum 37 to linear peptides of protein X4 of SARS-CoV Urbani / Binding of serum 37 to looped/cyclic peptides of protein X4 of SARS-CoV Urbani / Binding of serum 6 to linear peptides of protein X5 of SARS-CoV Urbani / Binding of serum 37 to linear peptides of protein X5 of SARS-CoV Urbani / Binding of serum 37 to looped/cyclic peptides of protein X5 of SARS-CoV Urbani / Binding of serum 6 to linear peptides of protein N of SARS-CoV Urbani / Binding of serum 37 to linear peptides of protein N of SARS-CoV Urbani / Binding of serum 6 to linear peptide (PEPSCAN-ELISA) / Binding of serum 1a to looped/cyclic peptides of protein N of SARS-CoV Urbani / Binding of serum 1b to looped/cyclic peptides of protein N of SARS-CoV Urbani / Binding of serum 2 to looped/cyclic peptides of protein N of SARS-CoV Urbani / Binding of serum 6 to looped/cyclic peptides of protein N of SARS-CoV Urbani / Binding of serum 37 to looped/cyclic peptides of protein N of SARS-CoV Urbani / Binding of serum 62 to looped/cyclic peptides of protein N of SARS-CoV Urbani / Binding of serum London to looped/cyclic peptides of protein N of SARS-CoV Urbani / Binding of serum SARS-green to looped/cyclic peptides of protein N of SARS-CoV Urbani: unit not given here.

For the sequence LYDANYFVCWHTHNY, in test [1], the “Binding of Control Serum Blood-Bank to Looped peptides” value is 0.7, the “Binding of Control serum Blood-bank to linear peptides” value is recorded as 0.8, the “Binding of Control serum LUMC to linear peptides” value came to 0.7 and the “Binding of Control serum LUMC to looped peptides” value is on record as 0.5. Also, in test [2], the “Binding of a rabbit serum to linear peptides” value is on record as 0.1 and the “Binding of a rabbit serum to looped peptides” value came out at 0.5. Moreover, in test [3], the “Binding of serum 1a to linear peptides of protein X1 of SARS-CoV Urbani” value was determined as 0.9, the “Binding of serum 1a to looped/cyclic peptide (PEPSCAN-ELISA)” value is given as 0.6, the “Binding of serum 1b to linear peptides of protein X1 of SARS-CoV Urbani” value turned out to be 0.8 and the “Binding of serum 1b to looped/cyclic peptide (PEPSCAN-ELISA)” value was 0.5. Moreover, in test [3], the “Binding of serum 2 to linear peptides of protein X1 of SARS-CoV Urbani” value was determined as 0.5, the “Binding of serum 2 to looped/cyclic peptide (PEPSCAN-ELISA)” value is on record as 0.4, the “Binding of serum 6 to linear peptides of protein X1 of SARS-CoV Urbani” value is 0.7 and the “Binding of serum 6 to looped/cyclic peptide (PEPSCAN-ELISA)” value came to 0.4. For the same sequence, in test [3], the “Binding of serum 37 to linear peptides of protein X1 of SARS-CoV Urbani” value turned out to be 0.8, the “Binding of serum 37 to looped/cyclic peptide (PEPSCAN-ELISA)” value is 0.6, the “Binding of serum 62 to linear peptides of protein X1 of SARS-CoV Urbani” value stood at 0.8 and the “Binding of serum 62 to looped/cyclic peptide (PEPSCAN-ELISA)” value turned out to be 0.6. Further, in test [3], the “Binding of serum London to linear peptides of protein X1 of SARS-CoV Urbani” value came out at 0.4, the “Binding of serum London to looped/cyclic peptide (PEPSCAN-ELISA)” value is 0.2, the “Binding of serum SARS-green to linear peptides of protein X1 of SARS-CoV Urbani” value turned out to be 0.4 and the “Binding of serum SARS-green to looped/cyclic peptide (PEPSCAN-ELISA)” value is 0.3. In addition, in test [3], the “Binding of serum SARS-yellow to linear peptides of protein X1 of SARS-CoV Urbani” value came out at 0.5 and the “Binding of serum SARS-yellow to looped/cyclic peptide (PEPSCAN-ELISA)” value is listed as 0.3.
Regarding LYIIKLVFLWLLWPV, in test [1], the “Binding of Control Serum Blood-Bank to Looped peptides of the protein M of SARS-CoV Urbani” value was 0.7, the “Binding of Control serum Blood-bank to linear peptides of the protein M of SARS-CoV Urbani” value came out at 0.7, the “Binding of Control serum LUMC to linear peptides of the protein M of SARS-CoV Urbani” value is 0.7 and the “Binding of Control serum LUMC to looped peptides of the protein M of SARS-CoV Urbani” value amounted to 0.6. In test [2], the “Rabbit serum linear peptides” value came out at 0.1 and the “Rabbit serum looped peptides” value is reported as 0.3. In test [3], the “Binding of serum 1a to linear peptides of protein M of SARS-CoV Urbani” value came to 0.8, the “Binding of serum 1a to looped/cyclic peptides of protein M of SARS-CoV Urbani” value is listed as 0.6, the “Binding of serum 1b to linear peptides of protein M of SARS-CoV Urbani” value worked out at 0.6 and the “Binding of serum 1b to looped/cyclic peptides of protein M of SARS-CoV Urbani” value is 0.5. In test [3], the “Binding of serum 2 to linear peptides of protein M of SARS-CoV Urbani” value turned out to be 0.6, the “Binding of serum 2 to looped/cyclic peptides of protein M of SARS-CoV Urbani” value is recorded as 0.5, the “Binding of serum 6 to linear peptides of protein M of SARS-CoV Urbani” value amounted to 0.4 and the “Binding of serum 6 to looped/cyclic peptides of protein M of SARS-CoV Urbani” value is listed as 0.7. Further, in test [3], the “Binding of serum 37 to linear peptides of protein M of SARS-CoV Urbani” value is on record as 0.4, the “Binding of serum 37 to looped/cyclic peptides of protein M of SARS-CoV Urbani” value is 0.6, the “Binding of serum 62 to linear peptides of protein M of SARS-CoV Urbani” value came out at 0.4 and the “Binding of serum 62 to looped/cyclic peptides of protein M of SARS-CoV Urbani” value is 0.6. Further, in test [3], the “Binding of serum London to linear peptides of protein M of SARS-CoV Urbani” value is 0.3, the “Binding of serum London to looped/cyclic peptides of protein M of SARS-CoV Urbani” value is on record as 0.2, the “Binding of serum SARS-green to linear peptides of protein M of SARS-CoV Urbani” value is reported as 0.5 and the “Binding of serum SARS-green to looped/cyclic peptides of protein M of SARS-CoV Urbani” value stood at 0.3. In addition, in test [3], the “Binding of serum SARS-yellow to linear peptides of protein M of SARS-CoV Urbani” value was found to be 0.2 and the “Binding of serum SARS-yellow to looped/cyclic peptides of protein M of SARS-CoV Urbani” value was found to be 0.3.
Take LYKGFQFICNLLLLF: in test [1], the “Binding of Control Serum Blood-Bank to Looped peptides” value stood at 0.4, the “Binding of Control serum Blood-bank to linear peptides” value is recorded as 0.5, the “Binding of Control serum LUMC to linear peptides” value is 0.5 and the “Binding of Control serum LUMC to looped peptides” value was 0.6. In addition, in test [2], the “Binding of a rabbit serum to linear peptides” value was 0.2 and the “Binding of a rabbit serum to looped peptides” value amounted to 0.3. For the same sequence, in test [3], the “Binding of serum 1a to linear peptides of protein X1 of SARS-CoV Urbani” value is given as 0.6, the “Binding of serum 1a to looped/cyclic peptide (PEPSCAN-ELISA)” value is 0.5, the “Binding of serum 1b to linear peptides of protein X1 of SARS-CoV Urbani” value is 0.5 and the “Binding of serum 1b to looped/cyclic peptide (PEPSCAN-ELISA)” value is reported as 0.3. In addition, in test [3], the “Binding of serum 2 to linear peptides of protein X1 of SARS-CoV Urbani” value is on record as 0.5, the “Binding of serum 2 to looped/cyclic peptide (PEPSCAN-ELISA)” value is 0.3, the “Binding of serum 6 to linear peptides of protein X1 of SARS-CoV Urbani” value is given as 0.4 and the “Binding of serum 6 to looped/cyclic peptide (PEPSCAN-ELISA)” value was 1.5. Moreover, in test [3], the “Binding of serum 37 to linear peptides of protein X1 of SARS-CoV Urbani” value was 0.5, the “Binding of serum 37 to looped/cyclic peptide (PEPSCAN-ELISA)” value is on record as 0.4, the “Binding of serum 62 to linear peptides of protein X1 of SARS-CoV Urbani” value stood at 0.4 and the “Binding of serum 62 to looped/cyclic peptide (PEPSCAN-ELISA)” value came out at 0.5. In test [3], the “Binding of serum London to linear peptides of protein X1 of SARS-CoV Urbani” value worked out at 0.2, the “Binding of serum London to looped/cyclic peptide (PEPSCAN-ELISA)” value worked out at 1.7, the “Binding of serum SARS-green to linear peptides of protein X1 of SARS-CoV Urbani” value is 0.2 and the “Binding of serum SARS-green to looped/cyclic peptide (PEPSCAN-ELISA)” value was determined as 0.2. In test [3], the “Binding of serum SARS-yellow to linear peptides of protein X1 of SARS-CoV Urbani” value was determined as 0.4 and the “Binding of serum SARS-yellow to looped/cyclic peptide (PEPSCAN-ELISA)” value was determined as 0.3.
As for LYLYALIYFLQCINA, in test [1], the “Binding of Control Serum Blood-Bank to Looped peptides” value stood at 0.5, the “Binding of Control serum Blood-bank to linear peptides” value is given as 0.5, the “Binding of Control serum LUMC to linear peptides” value is given as 0.5 and the “Binding of Control serum LUMC to looped peptides” value stood at 0.4. Besides, in test [2], the “Binding of a rabbit serum to linear peptides” value turned out to be 0.1 and the “Binding of a rabbit serum to looped peptides” value was 0.5. Also, in test [3], the “Binding of serum 1a to linear peptides of protein X1 of SARS-CoV Urbani” value is given as 0.7, the “Binding of serum 1a to looped/cyclic peptide (PEPSCAN-ELISA)” value is 0.3, the “Binding of serum 1b to linear peptides of protein X1 of SARS-CoV Urbani” value was 0.5 and the “Binding of serum 1b to looped/cyclic peptide (PEPSCAN-ELISA)” value is recorded as 0.3. In test [3], the “Binding of serum 2 to linear peptides of protein X1 of SARS-CoV Urbani” value stood at 0.4, the “Binding of serum 2 to looped/cyclic peptide (PEPSCAN-ELISA)” value was 0.2, the “Binding of serum 6 to linear peptides of protein X1 of SARS-CoV Urbani” value is listed as 0.3 and the “Binding of serum 6 to looped/cyclic peptide (PEPSCAN-ELISA)” value was 0.3. In test [3], the “Binding of serum 37 to linear peptides of protein X1 of SARS-CoV Urbani” value worked out at 0.5, the “Binding of serum 37 to looped/cyclic peptide (PEPSCAN-ELISA)” value was found to be 0.4, the “Binding of serum 62 to linear peptides of protein X1 of SARS-CoV Urbani” value is recorded as 0.5 and the “Binding of serum 62 to looped/cyclic peptide (PEPSCAN-ELISA)” value worked out at 0.4. In test [3], the “Binding of serum London to linear peptides of protein X1 of SARS-CoV Urbani” value stood at 0.2, the “Binding of serum London to looped/cyclic peptide (PEPSCAN-ELISA)” value was determined as 0.2, the “Binding of serum SARS-green to linear peptides of protein X1 of SARS-CoV Urbani” value was 0.2 and the “Binding of serum SARS-green to looped/cyclic peptide (PEPSCAN-ELISA)” value was determined as 0.2. Further, in test [3], the “Binding of serum SARS-yellow to linear peptides of protein X1 of SARS-CoV Urbani” value worked out at 0.5 and the “Binding of serum SARS-yellow to looped/cyclic peptide (PEPSCAN-ELISA)” value was determined as 0.3.
